Experimental findings from patent US7342011B2, “Rifamycin analogs and uses thereof” (priority 2003, dated 2008) are described below.

What all share (format): cell-based
One assay relates to S. aureus. In words: MIC assay, S. aureus.
In another assay the test system is S. pneumo. Briefly: MIC assay, S. pneumo.
The test system of another assay is E. faecalis. Briefly: MIC assay, E. faecalis.
The test system of another assay is H. flu. Briefly: MIC assay, H. flu.
The next assay relates to E. coli. In words: MIC assay, E. coli.

≈ marks a conversion by molar mass, not a printed value. Bounds are passed on as bounds.

Consider `COCCOC(=O)NC1CCN(c2cc(O)c3nc4c5c6c7c(C)c(O)c5c(=O)c(c-4oc3c2)NC(=O)/C(C)=C\C=C\[C@H](C)[C@H](O)[C@@H](C)[C@@H](O)[C@@H](C)[C@H](OC(C)=O)[C@H](C)[C@@H](OC)/C=C/O[C@@](C)(O7)C6=O)CC1` [Compound 41, 3′-hydroxy-5′-[4-methoxyethylcarbamyl-1-piperidinyl]benzoxazinorifamycin], for which the “MIC (μg/mL) S. aureus” value in the assay on S. aureus came out at 0.25 µg/mL (≈ 0.25 µM). Moreover, the “MIC (μg/mL) S. pneumo.” value in the assay with S. pneumo. came to 0.0005 µg/mL (≈ 0.000499 µM). The “MIC (μg/mL) E. faecalis” value in the assay on E. faecalis is >8 µg/mL. Moreover, in the assay on H. flu, the “MIC (μg/mL) H. flu” value came to 2 µg/mL (≈ 2 µM). Besides, in the assay with E. coli, the “MIC (μg/mL) E. coli” value was >8 µg/mL.
Take `CO[C@H]1/C=C/O[C@@]2(C)Oc3c(C)c(O)c4c(=O)c(c5oc6cc(N7CCC(CCO)CC7)cc(O)c6nc-5c4c3C2=O)NC(=O)/C(C)=C\C=C\[C@H](C)[C@H](O)[C@@H](C)[C@@H](O)[C@@H](C)[C@H](OC(C)=O)[C@@H]1C` [Compound 61, 3′-hydroxy-5′-[4-(2-hydroxyethyl)-1-piperidinyl]benzoxazinorifamycin]: the “MIC (μg/mL) S. aureus” value in the assay on S. aureus worked out at 0.004 µg/mL (≈ 0.00431 µM). Besides, in the assay with S. pneumo., the “MIC (μg/mL) S. pneumo.” value came out at 0.00012 µg/mL (≈ 0.000129 µM). Further, in the assay with E. faecalis, the “MIC (μg/mL) E. faecalis” value worked out at 1 µg/mL (≈ 1.08 µM). For the same compound, the “MIC (μg/mL) H. flu” value in the assay on H. flu was found to be 0.25 µg/mL (≈ 0.269 µM). Also, the “MIC (μg/mL) E. coli” value against E. coli is >8 µg/mL.
For the compound `CCOC(=O)N1CCCC2CN(c3cc(O)c4nc5c6c7c8c(C)c(O)c6c(=O)c(c-5oc4c3)NC(=O)C(C)=CC=CC(C)C(O)C(C)C(O)C(C)C(O)C(C)C(OC)C=COC(C)(O8)C7=O)CC21` (centres unmarked) [Compound 42], the “MIC (μg/mL) S. aureus” value in the assay on S. aureus is 0.008 µg/mL (≈ 0.00838 µM). Besides, the “MIC (μg/mL) S. pneumo.” value against S. pneumo. was 0.00012 µg/mL (≈ 0.000126 µM). For the same compound, the “MIC (μg/mL) E. faecalis” value against E. faecalis was found to be 2 µg/mL (≈ 2.09 µM). Moreover, in the assay with H. flu, the “MIC (μg/mL) H. flu” value was 0.5 µg/mL (≈ 0.524 µM). Further, in the assay on E. coli, the “MIC (μg/mL) E. coli” value was 8 µg/mL (≈ 8.38 µM).
Taken in the same sequence, the figures for `COC1C=COC2(C)Oc3c(C)c(O)c4c(=O)c(c5oc6cc(N7CCC(NC(=O)OC(C)C)CC7)cc(O)c6nc-5c4c3C2=O)NC(=O)C(C)=CC=CC(C)C(O)C(C)C(O)C(C)C(O)C1C` (centres unmarked) [Compound 29, 25-O-deacetyl-3′-hydroxy-5′-[4-isopropylcarbamyl-1-piperidinyl]benzoxazinorifamycin] were 0.008 µg/mL (≈ 0.00848 µM), 0.00012 µg/mL (≈ 0.000127 µM), 2 µg/mL (≈ 2.12 µM), 1 µg/mL (≈ 1.06 µM) and >8 µg/mL.
On to `CO[C@H]1/C=C/O[C@@]2(C)Oc3c(C)c(O)c4c(=O)c(c5oc6cc(N7CC[C@@H](N(C)C)C7)cc(O)c6nc-5c4c3C2=O)NC(=O)/C(C)=C\C=C\[C@H](C)[C@H](O)[C@@H](C)[C@@H](O)[C@@H](C)[C@H](OC(C)=O)[C@@H]1C` [Compound 75, 3′-hydroxy-5′-[(3R)-N,N-dimethylamino-1-pyrrolidinyl]benzoxazinorifamycin], for which, in the assay with S. aureus, the “MIC (μg/mL) S. aureus” value is 0.002 µg/mL (≈ 0.00219 µM). Further, the “MIC (μg/mL) S. pneumo.” value in the assay with S. pneumo. was found to be 0.00012 µg/mL (≈ 0.000131 µM). In addition, the “MIC (μg/mL) E. faecalis” value in the assay with E. faecalis came to 0.12 µg/mL (≈ 0.131 µM). Further, the “MIC (μg/mL) H. flu” value in the assay with H. flu was 0.25 µg/mL (≈ 0.274 µM). The “MIC (μg/mL) E. coli” value with E. coli stood at 4 µg/mL (≈ 4.38 µM).
Taken in the same sequence, the figures for `CO[C@H]1/C=C/O[C@@]2(C)Oc3c(C)c(O)c4c(=O)c(c5sc6cc(N7C[C@@H](C)N(CC8CC8)C[C@@H]7C)ccc6nc-5c4c3C2=O)NC(=O)/C(C)=C\C=C\[C@H](C)[C@H](O)[C@@H](C)[C@@H](O)[C@@H](C)[C@H](OC(C)=O)[C@@H]1C` [Compound 68, 5′-[(2S,5R)-4-(cyclopropylmethyl)-2,5-dimethylpiperazinyl]benzthiazinorifamycin] were 0.06 µg/mL (≈ 0.062 µM), 0.0005 µg/mL (≈ 0.000517 µM), 2 µg/mL (≈ 2.07 µM), 0.5 µg/mL (≈ 0.517 µM) and >8 µg/mL.
Taken in the same sequence, the figures for `CO[C@H]1/C=C/O[C@@]2(C)Oc3c(C)c(O)c4c(=O)c(c5sc6cc(N7CCC(N(C)C)CC7)ccc6nc-5c4c3C2=O)NC(=O)/C(C)=C\C=C\[C@H](C)[C@H](O)[C@@H](C)[C@@H](O)[C@@H](C)[C@H](OC(C)=O)[C@@H]1C` [Compound 69, 5′-[4-N,N-dimethylamino-1-piperidinyl]benzthiazinorifamycin] were 0.015 µg/mL (≈ 0.0162 µM), 0.00025 µg/mL (≈ 0.00027 µM), 0.5 µg/mL (≈ 0.539 µM), 0.5 µg/mL (≈ 0.539 µM) and 4 µg/mL (≈ 4.31 µM).
Regarding `CO[C@H]1/C=C/O[C@@]2(C)Oc3c(C)c(O)c4c(=O)c(c5oc6cc(N7CCC(C)(N(C)C)CC7)cc(O)c6nc-5c4c3C2=O)NC(=O)/C(C)=C\C=C\[C@H](C)[C@H](O)[C@@H](C)[C@@H](O)[C@@H](C)[C@H](O)[C@@H]1C` [Compound 73, 25-O-deacetyl-3′-hydroxy-5′-[4-methyl-4-N,N-dimethylamino-1-piperidinyl]benzoxazinorifamycin], the “MIC (μg/mL) S. aureus” value against S. aureus turned out to be 0.002 µg/mL (≈ 0.00222 µM). Further, the “MIC (μg/mL) S. pneumo.” value against S. pneumo. came out at 0.00025 µg/mL (≈ 0.000278 µM). In addition, the “MIC (μg/mL) E. faecalis” value in the assay with E. faecalis was 0.03 µg/mL (≈ 0.0334 µM). Further, in the assay with H. flu, the “MIC (μg/mL) H. flu” value worked out at 0.12 µg/mL (≈ 0.133 µM). In the assay with E. coli, the “MIC (μg/mL) E. coli” value was 2 µg/mL (≈ 2.22 µM).
Taken in the same sequence, the figures for `CO[C@H]1/C=C/O[C@@]2(C)Oc3c(C)c(O)c4c(=O)c(c5oc6cc(N7CCC(CCO)CC7)cc(O)c6nc-5c4c3C2=O)NC(=O)/C(C)=C\C=C\[C@H](C)[C@H](O)[C@@H](C)[C@@H](O)[C@@H](C)[C@H](O)[C@@H]1C` [Compound 66, 25-O-deacetyl-3′-hydroxy-5′-[4-(2-hydroxyethyl)-1-piperidinyl]benzoxazinorifamycin] were 0.004 µg/mL (≈ 0.00451 µM), 0.0005 µg/mL (≈ 0.000564 µM), 0.12 µg/mL (≈ 0.135 µM), 0.12 µg/mL (≈ 0.135 µM) and 4 µg/mL (≈ 4.51 µM).
With `CO[C@H]1/C=C/O[C@@]2(C)Oc3c(C)c(O)c4c(=O)c(c5oc6cc(N7CCC(NC(=O)N8CCN(C)CC8)CC7)cc(O)c6nc-5c4c3C2=O)NC(=O)/C(C)=C\C=C\[C@H](C)[C@H](O)[C@@H](C)[C@@H](O)[C@@H](C)[C@H](OC(C)=O)[C@@H]1C` [Compound 50, 3′-hydroxy-5′-[4-(4-methylpiperazinylcarbonyl)amino-1-piperidinyl]benzoxazinorifamycin], the “MIC (μg/mL) S. aureus” value with S. aureus came to 0.03 µg/mL (≈ 0.0293 µM). Further, the “MIC (μg/mL) S. pneumo.” value against S. pneumo. is 0.00012 µg/mL (≈ 0.000117 µM). In addition, the “MIC (μg/mL) E. faecalis” value in the assay on E. faecalis is 4 µg/mL (≈ 3.9 µM). The “MIC (μg/mL) H. flu” value in the assay on H. flu was 0.5 µg/mL (≈ 0.488 µM). In addition, in the assay with E. coli, the “MIC (μg/mL) E. coli” value was >8 µg/mL.
Taken in the same sequence, the figures for `CCOC(=O)N1CCC[C@@H]2CN(c3cc(O)c4nc5c6c7c8c(C)c(O)c6c(=O)c(c-5oc4c3)NC(=O)/C(C)=C\C=C\[C@H](C)[C@H](O)[C@@H](C)[C@@H](O)[C@@H](C)[C@H](OC(C)=O)[C@H](C)[C@@H](OC)/C=C/O[C@@](C)(O8)C7=O)C[C@@H]21` [Compound 40, 3′-hydroxy-5′-[1-ethylcarbamyl-(4aR,7aR)-octahydro-6H-pyrrolo[3,4-b]pyridin-6-yl]benzoxazinorifamycin] were 0.06 µg/mL (≈ 0.0602 µM), 0.008 µg/mL (≈ 0.00802 µM), 1 µg/mL (≈ 1 µM), 0.5 µg/mL (≈ 0.501 µM) and >8 µg/mL.
Taken in the same sequence, the figures for `CO[C@H]1/C=C/O[C@@]2(C)Oc3c(C)c(O)c4c(=O)c(c5oc6cc(N7C[C@@H]8CCCN(C)[C@@H]8C7)cc(O)c6nc-5c4c3C2=O)NC(=O)/C(C)=C\C=C\[C@H](C)[C@H](O)[C@@H](C)[C@@H](O)[C@@H](C)[C@H](O)[C@@H]1C` [Compound 59, 25-O-deacetyl-3′-hydroxy-5′-[1-methyl-(4aS,7aS)-octahydro-6H-pyrrolo[3,4-b]pyridin-6-yl]benzoxazinorifamycin] were 0.004 µg/mL (≈ 0.00446 µM), 0.001 µg/mL (≈ 0.00111 µM), 0.06 µg/mL (≈ 0.0669 µM), 0.12 µg/mL (≈ 0.134 µM) and 4 µg/mL (≈ 4.46 µM).
In the case of `CO[C@H]1/C=C/O[C@@]2(C)Oc3c(C)c(O)c4c(=O)c(c5oc6cc(N7CCC(C)(NC(C)=O)CC7)cc(O)c6nc-5c4c3C2=O)NC(=O)/C(C)=C\C=C\[C@H](C)[C@H](O)[C@@H](C)[C@@H](O)[C@@H](C)[C@H](OC(C)=O)[C@@H]1C` [Compound 72, 3′-hydroxy-5′-[4-methyl-4-acetylamino-1-piperidinyl]benzoxazinorifamycin], the “MIC (μg/mL) S. aureus” value with S. aureus stood at 0.008 µg/mL (≈ 0.00838 µM). Besides, in the assay with S. pneumo., the “MIC (μg/mL) S. pneumo.” value amounted to 0.00025 µg/mL (≈ 0.000262 µM). In addition, the “MIC (μg/mL) E. faecalis” value against E. faecalis was determined as 2 µg/mL (≈ 2.09 µM). Further, the “MIC (μg/mL) H. flu” value against H. flu was 0.5 µg/mL (≈ 0.524 µM). Further, the “MIC (μg/mL) E. coli” value in the assay with E. coli was >8 µg/mL.
